Read-outs that look alike come from different tables or passages of the source.
Key:
DENV 2 = DENV 2 viral production in HEK293T/17 cells by standard plaque assay; assay type: cell-based, dengue virus; conditions: for Selective Index (SI): DENV, CC50 and EC50 in HEK293T/17 cells; for EC50: Dengue virus, read-out: EC50 against DENV 2 infection; for DENV 2 viral production, concentration dependence: HEK293T/17, MOI 5, 1 to 100 µM
Description: The effects of the compounds on DENV-2 infection were evaluated using HEK293T/17 as host cells at MOI of 5. The cells were infected with DENV 2 for 2 h and then the cells were incubated with the compounds at non-cytotoxic (or morphology altering) concentrations of 10 and 25 μM of ZAD-1 and ZAD-3, or 25 and 50 μM of ZAD-2, or 50 and 75 μM of andrographolide or 0.1% DMSO vehicle control. After 24 h of treatment, cells were harvested for determination of the percentage of infection by flow cytometry, while the culture supernatants were collected to determine the viral production.
Thus, the EC50 values of ZAD-1 and andrographolide were determined against ZIKV and DENV 2. For ZIKV, A549 cells were infected with ZIKV at MOI 5 and after 2 h of infection, the cells were incubated with ZAD-1 or andrographolide at a range of concentrations (1 to 100 µM) for 24 h, after which the supernatants were collected for determination of EC50 values by standard plaque assay. Both ZAD-1 and andrographolide reduced viral production in a dose-dependent manner (Figure 4A). […] For DENV 2, HEK293T/17 cells were infected with DENV 2 at MOI 5 for 2 h and followed by incubation with ZAD-1 or andrographolide at a range of concentrations (1 to 100 µM) for 24 h. […] The EC50 value for andrographolide in DENV infection is consistent with our previous study undertaken in HepG2 and HeLa cells with the same virus.
DENV 2 (strain 16681) and ZIKV (strain SV0010/15) virus stocks were propagated in C6/36 cells previously described, and virus titers were determined by standard plaque assay as described previously using Vero cells for ZIKV and LLC-MK2 cells for DENV.
HEK293T/17 or A549 cells were cultured in six-well plates under standard conditions until the cells reached 80% confluence. HEK293T/17 cells were infected with DENV 2, while A549 cells were infected with ZIKV Thai strain at MOI 5 for 2 h at 37 °C and 5% CO2 in culture medium without FBS. Mock infection was undertaken in parallel. After the infection period, the medium was removed and replaced with complete medium (including FBS) containing 0.1% DMSO (no treatment control) or the appropriate concentration of each compound and cells were again incubated under standard conditions. At 24 h post-treatment, cells were harvested for determination of effects of compounds on percentage of infection and supernatant was collected for determination of viral productivity. All experiments were undertaken independently in triplicate with duplicate plaque assay.

PGK1 = assay: Western blot of PGK1 expression in treated A549 cells; assay type: cell-based, human; conditions: A549, 25 µM, 24 h, normalized to GAPDH
Description: (§1) To confirm the 2D-gel analysis results, HSPA1A and PGK1 were selected for the validation by Western blot. The same three experimental conditions were established, namely A549 cells treated with vehicle (0.025% DMSO), 25 μM andrographolide or 25 μM ZAD-1. Glyceraldehyde-3-phosphate dehydrogenase (GAPDH) was used as a loading control and the proteins were normalized to this protein. […] While the difference in HSPA1A expression between andrographolide treatment and ZAD-1 treatment is consistent with the spot intensity data (Table 3), the spot density for the control DMSO treatment is not consistent with the western blot result.
(§2) A total of 40 µg of proteins were separated by electrophoresis through a 12% sodium dodecyl sulfate (SDS) polyacrylamide gel and transferred to a nitrocellulose membrane by electroblotting. The membranes were blocked with 5% skim milk in TBS-T (20 mM Tris, 140 mM NaCl and 0.1% Tween-20) at room temperature for 1 h with shaking. […] The signal of specific protein bands was detected using the Luminata Forte Western HRP Substrate (Millipore Corp., Burlington, MA, USA) and recorded by film autoradiography. […]

HSPA1A = assay: Western blot of HSPA1A expression in treated A549 cells; assay type: cell-based, human; conditions: A549, 25 µM, 24 h, normalized to GAPDH
Description: as §1, §2

[1] = MTT cytotoxicity assay in BHK-21 cells; assay type: cell-based; conditions: hamster, BHK-21 cells (baby hamster kidney), 24 h post-treatment
Description: Cytotoxicity of each compound towards cells for four selected cell lines in the range of 1 to 500 µM was evaluated using the MTT (3-(4,5-dimethylthiazol-2-yl)-2,5-diphenyltetrazolium bromide) assay at 24 h post-treatment, in parallel with control and vehicle-treated cells (0.1% dimethyl sulfoxide (DMSO)). The 50% cytotoxic concentration (CC50) values calculated from the dose-response curve (Supplementary Figures S2–S5) are shown in Table 1. Overall, a range of cytotoxicities were seen from the four compounds across the […]. The most cytotoxic combination was ZAD-1 and BHK-21 cells, while the least cytotoxic combination was andrographolide and BHK-21 cells (Table 1).
A549 cells were cultured in ninety-six-well tissue culture plates under standard conditions until the cells reached 90% confluence. The cell culture medium was removed and then cells were incubated with various concentrations of andrographolide (1–100 μM) diluted in complete medium with FBS prior to being cultured for 24 h under standard conditions before analysis using either the Vybrant MTT Cell proliferation assay kit (V13154, Invitrogen) or the alamarBlue (Thermo Fischer Scientific, Waltham, MA, USA) assay kit according to the manufacturers recommendations. Values were determined from 8 (MTT assay) or 3 (alamarBlue) independent replicates. Negative controls (only media and media with 0.1% DMSO) and positive controls (5% DMSO) were included. To determine cell number, cell cultures were trypsinized by the addition of 0.25% Trypsin/0.1% ethylelediaminetetraacetic acid (EDTA) for 3 min and then cell suspensions were diluted with 0.4% trypan blue solution. Cells were counted using a hemocytometer. Cell morphology was additionally observed under an inverted microscope after 24 h treatment with various concentrations of each compound.
Figu re S2. Cytotoxicity of ZAD -1 (A), ZA D-2 (B), ZA D-3 (C), and andro grapholide (D) to BHK- 21 (baby hamster kidney) cells. BHK- 21 cells were incubated with various concentrations of each compound for 24 hrs followed by MTT cell viability assay. The experiment was undertaken independently in 4 replicates.
DMSO at the same concentrations was used as a control. 10% ethanol, PBS, and milli- Q water were used as a positive control of cell death. The bars show mean ± SD. […]

Row | Structure (SMILES) | Selective Index (SI) (DENV 2) | EC50 (DENV 2; HEK293T/17, 24 h) [µM] | DENV 2 viral production, concentration dependence (DENV 2; 24 h) | PGK1 expression relative to the vehicle (PGK1) | HSPA1A expression compared with the vehicle control (HSPA1A) | CC50 at 24 h [1] [µM] | EC50 (DENV 2; HEK293T/17 cells, MOI 5, 24 h treatment post-infection, plaque assay) [µM] | DENV 2 viral production, comparison among compounds (DENV 2; HEK293T/17, MOI 5, 25 µM, 24 h) | PGK1 expression as compared to andrographolide treatment (PGK1)
1 | C=C1CC[C@@H]2[C@](C)(CO)[C@H](O)CC[C@@]2(C)[C@@H]1C/C=C1/C(=O)OC[C@H]1O [Andrographolide] | 8.4 | 35.2 ± 2.5 | dose-dependent reductions | significantly upregulated | significantly increased | 600 ± 75 |  |  | 
2 | C=C1CC[C@@H]2[C@]3(C)COC(C)(C)O[C@@H]3CC[C@@]2(C)[C@@H]1C/C=C1/C(=O)OC[C@@H]1Oc1c(Cl)cc(Cl)c2ccc(C)nc12 [ZAD-1] | 6.6 |  | dose-dependent reductions |  | no significant difference from control | 136 ± 6 | 22.6 ± 1.8 | greatest reduction | significantly increased expression

Reference: article PMC7662321, “Andrographolide and Its 14-Aryloxy Analogues Inhibit Zika and Dengue Virus Infection” (Molecules, 2020)
